Assay results published in US20050204407A1, “Methods for identifying and developing compounds that interact with voltage-gated potassium channels of the kv4 family” (priority 2002, published 2005).

Key:
[1] = test system: hKv4.3 expressing C. elegans strain UG 1598; test: Pharynx pumping rate of hKv4.3 expressing pha-1 strain UG 1598; type: in vivo
Experimental: The influence of 4-aminopyridine, a known general antagonist of voltage-gated potassium channel, on the pharynx pumping rate of the hKv4.3 expressing C. elegans strain UG 1598 (Example III) was determined as follows.
(§1) The nematodes were cultivated to L4 stage on an agar plate, and then kept overnight at 20° C. to reach the adult stage. The worms where then transferred to agar plates containing 0,5 mM 4-aminopyridine in DMSO. After 3 hours at 20° C., the number of pharynx “pumps” (contractions) per 30 seconds were determined visually using a stopwatch. As a comparison, the influence of 4-aminopyridine on an N2 background was also determined, in essentially the same manner.

N2 background = test: Pharynx pumping rate of N2 background (comparison); type: in vivo, C. elegans; conditions: 0,5 mM, 3 hours at 20° C., FIG. 4
Experimental: as §1

[2] = test system: hKv4.3 expressing C. elegans strain UG 1611; test: Pharynx pumping rate of hKv4.3 expressing exp-2 strain UG 1611; type: in vivo; parameters: Change observed (pharynx pumping rate): dose or concentration left out as unconfirmed
Experimental: The influence of 4-aminopyridine, a known general antagonist of voltage-gated potassium channel, on the pharynx pumping rate of the hKv4.3 expressing C. elegans strain UG 1611 (Example IV) was determined as follows.
The nematodes were cultivated to L4 stage on an agar plate, and then kept overnight at 20° C. to reach the adult stage. […] After 3 hours at 20° C., the number of pharynx “pumps” (contractions) per 30 seconds were determined visually using a stopwatch. As a comparison, the influence of 4-aminopyridine on the original exp-2 background was also determined, in essentially the same manner.

exp-2 background [3] = test: Pharynx pumping rate of original exp-2 background (comparison); type: in vivo, C. elegans; conditions: 2 mM, 3 hours at 20° C., FIG. 5
Experimental: The nematodes were cultivated to L4 stage on an agar plate, and then kept overnight at 20° C. to reach the adult stage. The worms where then transferred to agar plates containing 2 mM 4-aminopyridine in DMSO. After 3 hours at 20° C., the number of pharynx “pumps” (contractions) per 30 seconds were determined visually using a stopwatch. As a comparison, the influence of 4-aminopyridine on the original exp-2 background was also determined, in essentially the same manner.

unc-119; hKv4.3 = test: Pharynx pumping rate of unc-119; hKv4.3 nematode; type: in vivo, C. elegans; conditions: 500 mM, 3 hrs
[4] = test system: hKv4.3 expressing C. elegans strain UG 1611; test: Drinking assay (uptake of Calcein AM) in hKv4.3 expressing exp-2 strain UG 1611; type: in vivo; conditions: 0.3 mM, exp-2 without compound = 100%, UG 1611 without compound 114%
Source text: (§2) The hKv4.3 expressing C. elegans strain UG 1611 (Example IV) was investigated for drinking behaviour by determining the uptake over time of the fluorescent dye Calcein AM, essentially as described in Examples 2 and 3 of the International application PCT/IB00/00575 by Applicant, using 96 well plates containing 100 nematodes/well. As a comparison, the exp-2(sa26as1426)V background was used.
(§3) The influence of mM 4-aminopyridine, a known general antagonist of voltage-gated potassium channel, on drinking behaviour of the hKv4.3 expressing C. elegans strain UG 1611 (Example IV) was determined by measuring the uptake of the fluorescent dye Calcein AM with and without the presence of 0.3 mM 4aminopyridine, essentially as described in Examples 2 and 3 of the International application PCT/IB00/00575 by Applicant.

exp-2 background [5] = test: Drinking assay (uptake of Calcein AM) in exp-2 background; type: in vivo, C. elegans; conditions: 0.3 mM, exp-2 without compound = 100%
Source text: as §2, §3

[6] = test system: hKv4.3-expressing pha-1 strain UG 1598; test: Electropharyngeogram (EPG) of hKv4.3-expressing pha-1 strain UG 1598; type: in vivo, C. elegans; conditions: 215 mM
Experimental: An electropharyngeogram of the human Kv4.3 expressing strain UG 1547 was recorded using an Axopatch-1D amplifier (Axon instruments), essentially as described by Raizen and Avery, supra, and is shown in FIG. 1. For comparison, reference is made to the EPG's for wild-type and exp-2 shown by Davis, Dent and Avery, Worm Breeders Gazette 14(4); 72 (1996), as well as the EPG's for wild-type shown in Raizen and Avery.
The influence of 4-aminopyridine on the EPG of a hKv4.3-expressing strain was studied using the hKv4.3-expressing pha-1 strain UG 1598 of Example III. As mentioned in Example VI, exposing this strain UG 1598 to 4-aminopyridine leads to a reduction of pharynx pumping.
The EPG's for UG 1598 (using 4 pharynxes) were recorded essentially as described in Example XII. The EPG's of UG 1598 without 4-aminopyridine were recorded during a period of 5 minutes, upon which the pharynxes were exposed to 215 mM 4-aminopyridine, and the EPG's were further recorded during a 5 minute period. The EPG's with and without the presence of 4-aminopyridine were then compared with each other and to the EPG for wild-type (see the references mentioned in Example XII).
The number of “Kv4.3-like” AP's and the number of “normal” AP's during the 5 minute recording period were determined/counted from the recorded EPG's.
After exposure to the 4-aminopyridine, the number of “Kv4.3-like” AP's and the number of “normal” AP's during the 5 minute recording period were again determined/counted from the EPG recording.

[7] = UG 1598, compared to UG1598 without compound

Nc1ccncc1 [4-aminopyridine]
Change observed (pharynx pumping rate) ([1]; pha-1, hKv4.3, 0,5 mM, 3 hrs): increase in | Influence on pharynx pumping rate (pumps per 30 seconds) ([1]; strain UG 1598, 0,5 mM in agar plates, 3 hours at 20° C., FIG. 4): increases | Pharynx pumping (as restated in Example XIII) ([1]; strain UG 1598, refers to Example VI): reduction | Influence on pharynx pumping rate (pumps per 30 seconds) (N2 background): very little influence | Change observed (pharynx pumping rate) ([2]; exp-2, hKv4.3, 3 hrs): (small) decrease | Influence on pharynx pumping rate (pumps per 30 seconds) ([2]; strain UG 1611, 2 mM in agar plates, 3 hours at 20° C., FIG. 5): decreases | Influence on pharynx pumping rate (pumps per 30 seconds) (exp-2 background [3]): very little influence | Change observed (pharynx pumping rate) (unc-119; hKv4.3): increase in | Uptake of fluorescent marker Calcein AM (drinking) [4]: 109% | Uptake of fluorescent marker Calcein AM (drinking) (exp-2 background [5]): 103% | Number of "normal" APs during the 5 minute recording period ([6]; UG 1598, 4 pharynxes, before adding 14+/−12, P<0.0161): 64+/−9 | Relative number of "Kv4.3 like" AP's in EPG [6, 7]: significant decrease | Relative number of "normal" AP's in EPG [6, 7]: corresponding increase
